Laboratory results taken from US20230295234A1, “ANTIMICROBIAL PEPTIDOMIMETICS” (SPEXIS AG, priority 2020, published 2023).
Bridge positions count the residues as written; N and C are the ends. Square brackets hold non-standard residues; d marks the D form. Triazole bridges read from a SMILES are 1,4-linked. Peptide text beside a SMILES is read from it. * marks the point of attachment. Val(Nα-amidino) = CC(C)[C@H](NC(=N)N)C(=O)*; Pro(4R-NH2) = N[C@H]1CN[C@H](C(=O)O)C1; Aha = [N-]=[N+]=NCC[C@H](N)C(=O)O; Hyp = O=C(O)[C@@H]1C[C@@H](O)CN1; aThr = C[C@H](O)[C@H](N)C(=O)O; Pen = CC(C)(S)[C@H](N)C(=O)O; dDab = NCC[C@@H](N)C(=O)O; Pra = C#CC[C@H](N)C(=O)O; Dab = NCC[C@H](N)C(=O)O

Tests used:
[1] = system: human red blood cells (hRBC); assay: Hemolysis of human red blood cells; assay type: cell-based; details: red cells of human, 1 h
Summary of the method: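 PBS-washed human red blood cells (20% v/v) were incubated with peptide at 200 μg/mL for 1 h at 37 °C with shaking. Supernatant OD was read at 540 nm after 8-fold dilution. Hemolysis is expressed as percent of the water control.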

[2] = system: Klebsiella pneumoniae SSI3010; details: SSI3010
Summary of the method: (§1)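 Broth microdilution; cation-adjusted MHII; inoculum ~5×10^5 CFU/mL from 0.5 McFarland saline suspension; peptide two-fold serial dilutions; polysorbate 80 0.002% final; peptide stock 1 mg/mL in water.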

[3] = system: Escherichia coli ATCC 25922; details: ATCC 25922
Summary of the method: as §1

[4] = system: Escherichia coli MCR-1 Af 45; details: Mueller-Hinton broth II, 18-20 hours at 35° C.
Summary of the method: as §1

SMILES	Hemolysis at 0.2 g/L [1]	Klebsiella pneumoniae SSI3010 MIC [2]	Escherichia coli ATCC 25922 MIC [3]	Escherichia coli MCR-1 Af 45 MIC [4]
CC[C@H](C)[C@H](NC(=O)[C@@H]1C[C@@H](O)CN1C(=O)[C@@H](NC(=N)N)C(C)C)C(=O)N[C@H](C(=O)N[C@@H](Cc1ccc(O)cc1)C(=O)N[C@@H]1C(=O)N[C@@H](CC(N)=O)C(=O)N[C@@H](CCCNC(=N)N)C(=O)N[C@@H](CCN)C(=O)N[C@@H]([C@@H](C)O)C(=O)N[C@H](CCN)C(=O)N[C@@H](CCN)C(=O)N[C@H](C(=O)N[C@@H](CCN)C(=O)N[C@@H](CCCNC(=N)N)C(=O)N[C@@H](Cc2ccc(O)cc2)C(=O)O)CSSC1(C)C)[C@@H](C)O [Example 195] (HELM PEPTIDE1{[CC(C)[C@H](NC(=N)N)C(=O)[*:2]].[Hyp].I.T.Y.[Pen].N.R.[Dab].T.[NCC[C@@H](N[*:1])C(=O)[*:2]].[Dab].C.[Dab].R.Y}$PEPTIDE1,PEPTIDE1,6:R3-13:R3$$$V2.0)	0%	0.125 mg/L	0.25 mg/L	0.0625 mg/L
CC[C@H](C)[C@H](NC(=O)[C@@H]1C[C@@H](O)CN1C(=O)[C@@H](NC(=N)N)C(C)C)C(=O)N[C@H](C(=O)N[C@@H](Cc1ccc(O)cc1)C(=O)N[C@@H]1C(=O)N[C@@H](CC(N)=O)C(=O)N[C@@H](CCCNC(=N)N)C(=O)N[C@@H](CCN)C(=O)N[C@@H](CO)C(=O)N[C@H](CCN)C(=O)N[C@@H](CCCCN)C(=O)N[C@H](C(=O)N[C@@H](CCN)C(=O)N[C@@H](CCCNC(=N)N)C(=O)N[C@@H](Cc2ccc(O)cc2)C(=O)O)CSSC1(C)C)[C@@H](C)O [Example 196] (HELM PEPTIDE1{[CC(C)[C@H](NC(=N)N)C(=O)[*:2]].[Hyp].I.T.Y.[Pen].N.R.[Dab].S.[NCC[C@@H](N[*:1])C(=O)[*:2]].K.C.[Dab].R.Y}$PEPTIDE1,PEPTIDE1,6:R3-13:R3$$$V2.0)	0%	0.125 mg/L	0.125 mg/L	0.0625 mg/L
CC[C@H](C)[C@H](NC(=O)[C@@H]1C[C@@H](O)CN1C(=O)[C@@H](NC(=N)N)C(C)C)C(=O)N[C@H](C(=O)N[C@@H](Cc1ccc(O)cc1)C(=O)N[C@@H]1C(=O)N[C@@H](CC(N)=O)C(=O)N[C@@H](CCCNC(=N)N)C(=O)N[C@@H](CCN)C(=O)N[C@@H](CO)C(=O)N[C@H](CCN)C(=O)N[C@@H](CCCCN)C(=O)N[C@H](C(=O)N[C@@H](CCN)C(=O)N[C@@H](CCN)C(=O)N[C@@H](Cc2ccc(O)cc2)C(=O)O)CSSC1(C)C)[C@@H](C)O [Example 197] (HELM PEPTIDE1{[CC(C)[C@H](NC(=N)N)C(=O)[*:2]].[Hyp].I.T.Y.[Pen].N.R.[Dab].S.[NCC[C@@H](N[*:1])C(=O)[*:2]].K.C.[Dab].[Dab].Y}$PEPTIDE1,PEPTIDE1,6:R3-13:R3$$$V2.0)	0%	0.125 mg/L	0.0625 mg/L	0.0625 mg/L
CC[C@H](C)[C@H](NC(=O)[C@@H]1C[C@@H](O)CN1C(=O)[C@@H](NC(=N)N)C(C)C)C(=O)N[C@H](C(=O)N[C@@H](Cc1ccc(O)cc1)C(=O)N[C@@H]1C(=O)N[C@@H](CC(N)=O)C(=O)N[C@@H](CCCNC(=N)N)C(=O)N[C@@H](CCN)C(=O)N[C@@H](CO)C(=O)N[C@H](CCN)C(=O)N[C@@H](CCCCN)C(=O)N[C@H](C(=O)N[C@@H](CCN)C(=O)N[C@@H](CCCN)C(=O)N[C@@H](Cc2ccc(O)cc2)C(=O)O)CSSC1(C)C)[C@@H](C)O [Example 198] (HELM PEPTIDE1{[CC(C)[C@H](NC(=N)N)C(=O)[*:2]].[Hyp].I.T.Y.[Pen].N.R.[Dab].S.[NCC[C@@H](N[*:1])C(=O)[*:2]].K.C.[Dab].[Orn].Y}$PEPTIDE1,PEPTIDE1,6:R3-13:R3$$$V2.0)	0%	0.125 mg/L	0.125 mg/L	0.0625 mg/L
CC[C@H](C)[C@H](NC(=O)[C@@H]1C[C@@H](N)CN1C(=O)[C@@H](NC(=N)N)C(C)C)C(=O)N[C@H](C(=O)N[C@@H](Cc1ccc(O)cc1)C(=O)N[C@@H]1C(=O)N[C@@H](CC(N)=O)C(=O)N[C@@H](CCCNC(=N)N)C(=O)N[C@@H](CCN)C(=O)N[C@@H]([C@@H](C)O)C(=O)N[C@H](CCN)C(=O)N[C@@H](CCCCN)C(=O)N[C@H](C(=O)N[C@@H](Cc2ccc(O)cc2)C(=O)N[C@@H](CCCNC(=N)N)C(=O)N[C@@H](Cc2ccc(O)cc2)C(=O)O)CSSC1(C)C)[C@@H](C)O [Example 199] ({Val(Nα-amidino)}-[Pro(4R-NH2)]ITY[Pen]NR[Dab]T[dDab]KCYRY-OH; disulfide 5-12)	0%	0.25 mg/L	0.25 mg/L	0.125 mg/L
CC[C@H](C)[C@H](NC(=O)[C@@H](NC(=O)[C@@H]1C[C@@H](N)CN1C(=O)[C@@H](NC(=N)N)C(C)C)[C@@H](C)CC)C(=O)N[C@@H](Cc1ccc(O)cc1)C(=O)N[C@@H]1C(=O)N[C@@H](CC(N)=O)C(=O)N[C@@H](CCCNC(=N)N)C(=O)N[C@@H](CCN)C(=O)N[C@@H]([C@@H](C)O)C(=O)N[C@H](CCN)C(=O)N[C@@H](CCCCN)C(=O)N[C@H](C(=O)N[C@@H](Cc2ccc(O)cc2)C(=O)N[C@@H](CCCNC(=N)N)C(=O)N[C@@H](Cc2ccc(O)cc2)C(=O)O)CSSC1(C)C [Example 200] ({Val(Nα-amidino)}-[Pro(4R-NH2)]IIY[Pen]NR[Dab]T[dDab]KCYRY-OH; disulfide 5-12)	0%	0.125 mg/L	0.5 mg/L	0.125 mg/L
CC[C@H](C)[C@H](NC(=O)[C@@H]1C[C@@H](O)CN1C(=O)[C@@H](NC(=N)N)C(C)C)C(=O)N[C@H](C(=O)N[C@@H](Cc1ccc(O)cc1)C(=O)N[C@@H]1C(=O)N[C@@H](CC(N)=O)C(=O)N[C@@H](CCCNC(=N)N)C(=O)N[C@@H](CCN)C(=O)N[C@@H]([C@@H](C)O)C(=O)N[C@H](CCN)C(=O)N[C@@H](CCCCN)C(=O)N[C@H](C(=O)N[C@@H](Cc2ccc(O)cc2)C(=O)N[C@@H](CCCNC(=N)N)C(=O)N[C@@H](Cc2ccc(O)cc2)C(=O)O)CSSC1(C)C)[C@H](C)O [Example 201] ({Val(Nα-amidino)}-[Hyp]I[aThr]Y[Pen]NR[Dab]T[dDab]KCYRY-OH; disulfide 5-12)	0%	0.5 mg/L	0.5 mg/L	0.25 mg/L
CC[C@H](C)[C@H](NC(=O)[C@@H](NC(=O)[C@@H]1CCCN1C(=O)[C@@H](N=C(N(C)C)N(C)C)C(C)C)[C@@H](C)CC)C(=O)N[C@@H](Cc1ccc(O)cc1)C(=O)N[C@H]1CSSC[C@@H](C(=O)N[C@@H](CCN)C(=O)N[C@@H](CCCNC(=N)N)C(=O)N[C@@H](Cc2ccc(O)cc2)C(=O)O)NC(=O)[C@H](CCCCN)NC(=O)[C@@H](CCN)NC(=O)[C@H]([C@@H](C)O)NC(=O)[C@H](CCN)NC(=O)[C@H](CCCNC(=N)N)NC(=O)[C@H](CC(N)=O)NC1=O [Example 202] (HELM PEPTIDE1{[CC(C)[C@H](N=C(N(C)C)N(C)C)C(=O)[*:2]].P.I.I.Y.C.N.R.[Dab].T.[NCC[C@@H](N[*:1])C(=O)[*:2]].K.C.[Dab].R.Y}$PEPTIDE1,PEPTIDE1,6:R3-13:R3$$$V2.0)	0%	0.25 mg/L	0.0625 mg/L	0.0625 mg/L
CC[C@H](C)[C@H](NC(=O)[C@@H]1C[C@@H](O)CN1C(=O)[C@@H](N=C(N(C)C)N(C)C)C(C)C)C(=O)N[C@H](C(=O)N[C@@H](Cc1ccc(O)cc1)C(=O)N[C@@H]1C(=O)N[C@@H](CC(N)=O)C(=O)N[C@@H](CCCNC(=N)N)C(=O)N[C@@H](CCN)C(=O)N[C@@H]([C@@H](C)O)C(=O)N[C@H](CCN)C(=O)N[C@@H](CCCCN)C(=O)N[C@H](C(=O)N[C@@H](CCN)C(=O)N[C@@H](CCCNC(=N)N)C(=O)N[C@@H](Cc2ccc(O)cc2)C(=O)O)CSSC1(C)C)[C@@H](C)O [Example 203] (HELM PEPTIDE1{[CC(C)[C@H](N=C(N(C)C)N(C)C)C(=O)[*:2]].[Hyp].I.T.Y.[Pen].N.R.[Dab].T.[NCC[C@@H](N[*:1])C(=O)[*:2]].K.C.[Dab].R.Y}$PEPTIDE1,PEPTIDE1,6:R3-13:R3$$$V2.0)	0%	0.5 mg/L	0.25 mg/L	0.125 mg/L
CC[C@H](C)[C@H](NC(=O)[C@@H](NC(=O)[C@@H]1C[C@@H](O)CN1C(=O)[C@@H](N)C(C)C)[C@@H](C)CC)C(=O)N[C@@H](Cc1ccc(O)cc1)C(=O)N[C@H]1Cc2cn(nn2)CC[C@@H](C(=O)N[C@@H](CCN)C(=O)N[C@@H](CCCNC(=N)N)C(=O)N[C@@H](Cc2ccc(O)cc2)C(=O)O)NC(=O)[C@H](CCCCN)NC(=O)[C@@H](CCN)NC(=O)[C@H]([C@@H](C)O)NC(=O)[C@H](CCN)NC(=O)[C@H](CCCNC(=N)N)NC(=O)[C@H](CC(N)=O)NC1=O [Example 204] (H-V[Hyp]IIY[Pra]NR[Dab]T[dDab]K[Aha][Dab]RY-OH; triazole 6-13)	0%	2 mg/L	0.25 mg/L	0.25 mg/L
